# Measured values published in patent US9884126B2, “Anti-wall teichoic antibodies and conjugates” (priority 2013, dated 2018).
# What was measured:
# MRSA (USA300) = assay: Intravenous infection model in CB17.SCID mice reconstituted with human IgG (SCID:huIgG); assay type: in vivo
# Method: To confirm that the AAC would be effective in the presence of competing human antibodies in vivo, the in vivo infection model was modified to generate mice that express normal levels of human IgG in the serum. […] Four days after infection the bacterial load in the kidneys (FIG. 10C) was assessed.
# CB17.SCID mice were reconstituted with human IgG using a dosing regimen optimized to yield constant levels of at least 10 mg/mL of human IgG in serum.
# Efficacy of the AAC was compared with that of treatment with vancomycin, the current standard of care treatment for MRSA infections. […]
# CB17.SCID mice were reconstituted with human IgG using a dosing regimen optimized to yield constant levels of at least 10 mg/mL of human IgG in serum and infected with 2×10^7 CFU of USA300 by intravenous injection. […] The mice were sacrificed on day 4 post infection, and the total number of surviving bacteria in kidneys (2 kidneys pooled, FIG. 21) and heart (FIG. 22) was determined by plating.
# 7 week old female mice were used for all in vivo experiments and infections were carried out by intravenous injection into the tail vein. […] The total number of bacteria recovered per mouse (2 kidneys) was determined by plating serial dilutions of the tissue homogenate in PBS 0.05% Tween on Tryptic Soy Agar with 5% defibrinated sheep blood.
# MRSA [1] = settings: TSB; vancomycin 2 and 20 μg/mL, rifampin 0.02 and 0.2 μg/mL
# [2] = system: MRSA (NRS384 strain of USA300); assay: MIC determination / killing of intracellular bacteria in mouse peritoneal macrophages; assay type: cell-based, Staphylococcus aureus
# MRSA [3] = assay: Transfer of infection from peritoneal cells to MG63 osteoblasts in the presence of vancomycin; assay type: cell-based, Staphylococcus aureus; settings: 5 μg/mL of vancomycin
# Method: 6-8 week old female A/J mice (JAX™ Mice, Jackson Laboratories) were infected with 1×10^8 CFU of the NRS384 strain of USA300 by peritoneal injection. The peritoneal wash was harvested 1 day post infection, and the infected peritoneal cells were treated with 50 μg/mL of lysostaphin diluted in Hepes Buffer supplemented with 0.1% BSA (HB buffer) for 30 minutes at 37° C. Peritoneal cells were then washed 2× in ice cold HB buffer. The peritoneal cells were diluted to 1×10^6 cells/mL in RPMI 1640 tissue culture media supplemented with 10 mM Hepes and 10% Fetal Calf Serum, and 5 μg/mL vancomycin. Free MRSA from the primary infection was stored overnight at 4° C. in Phosphate Buffered Saline Solution as a control for extracellular bacteria that were not subject to neutrophil killing.
# MG63 osteoblast cell line was obtained from ATCC (CRL-1427) and maintained in RPMI 1640 tissue culture media supplemented with 10 mM Hepes and 10% Fetal Calf Serum (RPMI-10). […] The actual titer for all infections was determined by plating serial dilutions of the bacteria on Tryptic Soy Agar with 5% defibrinated sheep blood.
# To generate a pool of intracellular S. aureus, A/J mice were infected with MRSA and infected peritoneal cells were taken 1 day post infection. […] The total number of surviving intracellular bacteria in each well was determined by plating cell lysates on agar plates. […]
# [4] = system: MRSA (NRS384 strain of USA300); assay: MIC determination for extracellular bacteria; assay type: cell-based; settings: Staphylococcus aureus, read-out: Extracellular MRSA MIC
# Method: Dilutions of the antibiotic were made in quadruplicate in 96 well culture dishes. MRSA (NRS384 strain of USA300) was taken from an exponentially growing culture and diluted to 1×10^4 CFU/mL. Bacteria was cultured in the presence of antibiotic for 18-24 hours with shaking at 37° C. and bacterial growth was determined by reading the Optical Density (OD) at […]. The MIC was determined to be the dose of antibiotic that inhibited bacterial growth by >90%.
# USA300 = assay: Intravenous infection model, pre-treatment in Balb/c mice; assay type: in vivo; settings: antibodies 50 mg/Kg IV 30 minutes prior to infection; vancomycin 110 mg/Kg twice daily; day 4
# Method: Balb/c mice were given a single dose of vehicle control (PBS) or 50 mg/Kg of antibodies by intravenous injection 30 minutes prior to infection with 2×10^7 CFU of USA300. […] Control mice were given twice daily treatments with 110 mg/Kg of vancomycin by intraperitoneal injection (Vanco). All mice were sacrificed on day 4 post-infection, and the total number of surviving bacteria in kidneys (2 kidneys pooled) was determined by plating.
# 7 week old female mice were used for all in vivo experiments and infections were carried out by intravenous injection into the tail vein. A/J mice (Jackson Lab) were infected with a dose of 2×10^6 CFU. Balb/c mice (Charles River Laboratories, Hollister, Calif.) were infected with a dose of 2×10^7 CFU. For studies examining the role of competing human IgG (SCID IVIG model), CB17.SCID mice (Charles River Laboratories, Hollister, Calif.) were reconstituted with GammaGard S/D IGIV Immune Globulin (ASD Healthcare, Brooks KY) using a dosing regimen optimized to achieve constant serum levels of >10 mg/mL of human IgG. […] The total number of bacteria recovered per mouse (2 kidneys) was determined by plating serial dilutions of the tissue homogenate in PBS 0.05% Tween on Tryptic Soy Agar with 5% defibrinated sheep blood.
structure (smiles),measurement,setting,value
CN[C@H](CC(C)C)C(=O)N[C@H]1C(=O)N[C@@H](CC(N)=O)C(=O)N[C@H]2C(=O)N[C@H]3C(=O)N[C@H](C(=O)N[C@H](C(=O)O)c4cc(O)cc(O)c4-c4cc3ccc4O)[C@H](O)c3ccc(c(Cl)c3)Oc3cc2cc(c3O[C@@H]2O[C@H](CO)[C@@H](O)[C@H](O)[C@H]2O[C@H]2C[C@](C)(N)[C@H](O)[C@H](C)O2)Oc2ccc(cc2Cl)[C@H]1O [Vancomycin],efficacy in SCID:huIgG mice (kidney bacteria day 4),"MRSA (USA300); AAC single dose 50 mg/Kg day 1, vancomycin 100 mg/Kg twice daily",failed to clear the infection
same,reduction of bacterial loads,"MRSA (USA300); twice-daily 100 mg/Kg, initiated more than 1 day post infection",about 50 fold
same,bacteria remaining viable during the first two hours of treatment,MRSA [1],90%
same,loss in viable bacteria by 5 hours,MRSA [1],100 fold
same,MIC,"[2]; Staphylococcus aureus, 24 h, MRSA inside mouse peritoneal macrophages, […]",> 100 µg/mL
same,killing of intracellular MRSA sequestered inside macrophages,[2]; doses including clinically achieveable serum levels,failed to kill
same,intracellular bacteria recovered from MG63 wells 1 day after infection,MRSA [3]; infected with 3×10^4 intracellular bacteria,"8,750 intracellular bacteria"
same,intracellular bacteria recovered from MG63 wells 1 day post infection,MRSA [3]; infected with a similar dose of free MRSA,375 intracellular bacteria
same,MIC,[4],1 µg/mL
same,effect of pre-treatment on bacterial loads in kidneys,USA300,cleared the infection in all of the mice tested
